How the values were obtained:
Huh7 cells = experiment: cell penetration by fluorescence microscopy, Huh7; type: cell-based, human
Protocol: (§1) The effect of the sub-micromolar HDM2 binding bis-peptide 1 in cell-culture was thereafter evaluated. The cell-penetrating capability of two of the functionalized bis-peptides was first examined. […] Bis-peptide 1 was then incubated with both Huh7 cells and HepG2 (human liver hepatoblastoma cells) and imaged.

HepG2 cells = type: cell-based, human
Protocol: as §1

p53 = details: stated as known behaviour of HDM2 ligands; cited from earlier work

Compound | cellular uptake and distribution (Huh7 cells) | cellular uptake and distribution (HepG2 cells) | cellular uptake (Huh7 cells; Huh7, 2 μM, 24 hours, fluorescence and confocal microscopy) | effect on p53 levels (p53)
CC(C)CN1C(=O)[C@@H]2C[C@@]3(CN2C(=O)[C@@]12C[C@H]1C(=O)N(Cc4ccc(Cl)c(Cl)c4)[C@]4(C[C@@H]5C(=O)N[C@@H](CCc6ccccc6)C(=O)N5C4)C(=O)N1C2)NC(=O)[C@@H](CCCCNC(=S)Nc1ccc2c(c1)C(=O)OC21c2ccc(O)cc2Oc2cc(O)ccc21)NC3=O [Entry 1] | distribution of entry 1 throughout the cytoplasm and nucleus | distribution of entry 1 throughout the cytoplasm and nucleus | – | –
CC(C)CN1C(=O)[C@@H]2C[C@@]3(CN2C(=O)[C@@]12C[C@H]1C(=O)N(Cc4ccc5ccccc5c4)[C@]4(C[C@H]5C(=O)N[C@@H](Cc6ccccc6)C(=O)N5C4)C(=O)N1C2)NC(=O)[C@H](CCCCNC(=S)Nc1ccc2c(c1)C(=O)OC21c2ccc(O)cc2Oc2cc(O)ccc21)NC3=O [Entry 3] | – | – | Significant uptake | –
O=C1OC2(c3ccc(O)cc3Oc3cc(O)ccc32)c2ccccc21 [fluorescein, reference compound] | no visible uptake of fluorescence | no visible uptake of fluorescence | – | –
COc1ccc(C2=N[C@@H](c3ccc(Cl)cc3)[C@@H](c3ccc(Cl)cc3)N2C(=O)N2CCNC(=O)C2)c(OC(C)C)c1 [nutlin-3a] | – | – | – | increase in p53 levels

Reference: patent US8895739B2, “Acylation of hindered amines and functionalized bis-peptides obtained thereby” (Temple University of the Commonwealth System of Higher …, priority 2008, dated 2014)
